Like-named read-outs stand apart in the source and are kept apart here.
Assays:
[1] = system: P. aeruginosa (strain WC-452); test: 21-day serial passage resistance assay; assay type: cell-based, Pseudomonas aeruginosa; details: over 18 days
Protocol: […]. An analysis of bacterial resistance was performed using P. aeruginosa (strain WC-452) over 21 days of serial passage in the presence of a GN-lysin dilution series (in duplicate). […] The well with the highest concentration of GN lysin in which bacterial growth was seen was then used as the inoculum for the next day's passage, and the process was repeated over a 21 day period. The MIC at each daily time-point was recorded, and resistance was measured as a step-wise increase in MIC.

[2] = system: carbapenem-resistant P. aeruginosa strains; assay type: cell-based, Pseudomonas aeruginosa
Protocol: Such resensitization may be determined by combining the present lysins or lysin-AMP polypeptide constructs with an antibiotic in a checkerboard assay as described herein. Antibiotic-resistant bacteria, such as carbapenem-resistant P. aeruginosa, are added to the lysin or lysin-AMP polypeptide construct combination. […] See Clinical and Laboratory Standards Institute (CLSI), CLSI. […] M100 Performance Standards for Antimicrobial Susceptibility Testing; 29th Edition. Clinical and Laboratory Standards Institute, Wayne, Pa., which is herein incorporated by reference in its entirety.
Up to seven carbapenem-resistant isolates were assessed. […] See Clinical and Laboratory Standards Institute (CLSI), CLSI. […] M100 Performance Standards for Antimicrobial Susceptibility Testing; 29th Edition. Clinical and Laboratory Standards Institute, Wayne, Pa.

[3] = system: P. aeruginosa isolate CFS 1558 (PA20); test: Rabbit pulmonary model establishment: inoculum and meropenem static dose; assay type: in vivo; details: for Bacterial Burden, Kidneys / Bacterial Burden, Lung 1 / Bacterial Burden, Lung 2 / Bacterial Burden, Spleen: sacrificed 18-24 hours after last dose
Text: 3×10^9 CFU of the P. aeruginosa isolate was used to challenge the rabbits during the efficacy study described below.

Staphylococcus aureus = test: Daptomycin MIC in […] (positive control); assay type: cell-based; details: S. aureus
Protocol: As a positive control, the impact of […] ® on daptomycin (DAP) activity against Staphylococcus aureus was also tested.

[4] = Meropenem 10 mg/kg, three times a day subcutaneous for two days
[5] = Meropenem 20 mg/kg, three times a day subcutaneous for two days
[6] = Meropenem 30 mg/kg, three times a day subcutaneous for two days
[7] = Meropenem 40 mg/kg, three times a day subcutaneous for two days

`O=C(O)c1cn(C2CC2)c2cc(N3CCNCC3)c(F)cc2c1=O` [Ciprofloxacin] was tested, and the “increase in MIC during serial passage” value [1] was 16 fold.
In the case of `C[C@@H](O)[C@H]1C(=O)N2C(C(=O)O)=C(SCCN=CN)C[C@H]12` [Imipenem, imipenem], the “Antibiotic MIC Alone” value ([2]; IPM + GN351 vs. WC-452) is reported as 16 (R), the “Antibiotic MIC Alone” value ([2]; IPM + GN370 vs. WC-452) is reported as 16 (R) and the “Antibiotic MIC Alone” value ([2]; IPM + GN428 vs. WC-452) is reported as 16 (R).
`C[C@@H](O)[C@H]1C(=O)N2C(C(=O)O)=C(S[C@@H]3CN[C@H](C(=O)N(C)C)C3)[C@H](C)[C@H]12` [Meropenem, meropenem] was tested, and the “Bacterial Burden, Kidneys” value [3, 4] was 4.36 ± 0.43 log10 CFU/g, the “Bacterial Burden, Lung 1” value [3, 4] was 7.39 ± 0.34 log10 CFU/g and the “Bacterial Burden, Lung 2” value [3, 4] was 7.42 ± 0.64 log10 CFU/g. The “Bacterial Burden, Spleen” value [3, 4] was 4.01 ± 0.10 log10 CFU/g, the “Bacterial Burden, Kidneys” value [3, 5] was 4.51 ± 0.73 log10 CFU/g and the “Bacterial Burden, Lung 1” value [3, 5] was 6.85 ± 1.09 log10 CFU/g. The “Bacterial Burden, Lung 2” value [3, 5] was 6.97 ± 1.19 log10 CFU/g, the “Bacterial Burden, Spleen” value [3, 5] was 4.74 ± 0.57 log10 CFU/g and the “Bacterial Burden, Kidneys” value ([3]; Meropenem 25 mg/kg) was 2.06 ± 0.58 log10 CFU/g. For the same molecule, the “Bacterial Burden, Lung 1” value ([3]; Meropenem 25 mg/kg) was 4.55 ± 1.65 log10 CFU/g, the “Bacterial Burden, Lung 2” value ([3]; Meropenem 25 mg/kg) was 3.73 ± 1.03 log10 CFU/g and the “Bacterial Burden, Spleen” value ([3]; Meropenem 25 mg/kg) was 2.15 ± 0.78 log10 CFU/g. The “Bacterial Burden, Kidneys” value [3, 6] was 2.24 ± 0.64 log10 CFU/g, the “Bacterial Burden, Lung 1” value [3, 6] was 4.83 ± 1.19 log10 CFU/g and the “Bacterial Burden, Lung 2” value [3, 6] was 4.42 ± 1.14 log10 CFU/g. The “Bacterial Burden, Spleen” value [3, 6] was 1.97 ± 0.63 log10 CFU/g, the “Bacterial Burden, Kidneys” value [3, 7] was 2.34 ± 0.65 log10 CFU/g and the “Bacterial Burden, Lung 1” value [3, 7] was 4.66 ± 0.11 log10 CFU/g. For the same molecule, the “Bacterial Burden, Lung 2” value [3, 7] was 2.95 ± 1.19 log10 CFU/g, the “Bacterial Burden, Spleen” value [3, 7] was 1.93 ± 0.47 log10 CFU/g and the “meropenem dosage establishing a static effect” value ([3]; three times a day, subcutaneous, two days, rabbits) was 20 mg/kg. The “Antibiotic MIC Alone” value ([2]; MEM + GN351 vs. WC-452) was 16 (R), the “Antibiotic MIC Alone” value ([2]; MEM + GN370 vs. WC-452) was 16 (R) and the “Antibiotic MIC Alone” value ([2]; MEM + GN428 vs. WC-452) was 16 (R).
daptomycin was tested, and the “fold increase in MIC” value (Staphylococcus aureus; 0.09% SURVANTA) was 32, the “fold increase in MIC” value (Staphylococcus aureus; 0.19% SURVANTA) was 32 and the “fold increase in MIC” value (Staphylococcus aureus; 1.56% SURVANTA) was 128. The “fold increase in MIC” value (Staphylococcus aureus; 3.15% SURVANTA) was 128.
